melting point: 59 to 60 °C
SMILES: CCN(C)C=Nc1cc(OC)c(Oc2ccccc2)cc1C
